The values that follow come from ChEMBL document CHEMBL3751745, “Aryl-imidazothiadiazole analogues as microtubule disrupting agents” (Medchemcomm, 2015).

Calls of active or inactive are those of the source. The calls are words filed in the database; no cut-off is given here.

By IC50 is commonly meant the concentration needed to halve the response being measured. What is called inhibition is how much of the control response was suppressed.

Assay [1] in a line: Cytotoxicity against human MIAPaCa2 cells assessed as cell viability after 48 hrs by SRB assay. The format is functional, cell-based. Conditions: MIA PaCa-2, 48 h. On the technique in general: The SRB assay estimates cell density from bound dye.
The subject of another assay is MCF7. Kind of assay: Cytotoxicity against human MCF7 cells assessed as cell viability after 48 hrs by SRB assay. It counts as functional, cell-based. The following applies: MCF7, 48 h.
Assay [2] concerns HeLa. Kind of assay: Cytotoxicity against human HeLa cells assessed as cell viability after 48 hrs by SRB assay. It counts as functional, cell-based.
Assay [3] can be described thus: Cytotoxicity against human DU145 cells assessed as cell viability after 48 hrs by SRB assay. Conditions: DU-145, 48 h. The format is functional, cell-based.
For a further assay, the target named is Tubulin (Sus scrofa) (UniProt P02554+P02550). In words: Inhibition of porcine brain tubulin polymerization at 5 uM by fluorescence based assay.
Chain of Tubulin (Sus scrofa) (P02550 whole entry, looked up): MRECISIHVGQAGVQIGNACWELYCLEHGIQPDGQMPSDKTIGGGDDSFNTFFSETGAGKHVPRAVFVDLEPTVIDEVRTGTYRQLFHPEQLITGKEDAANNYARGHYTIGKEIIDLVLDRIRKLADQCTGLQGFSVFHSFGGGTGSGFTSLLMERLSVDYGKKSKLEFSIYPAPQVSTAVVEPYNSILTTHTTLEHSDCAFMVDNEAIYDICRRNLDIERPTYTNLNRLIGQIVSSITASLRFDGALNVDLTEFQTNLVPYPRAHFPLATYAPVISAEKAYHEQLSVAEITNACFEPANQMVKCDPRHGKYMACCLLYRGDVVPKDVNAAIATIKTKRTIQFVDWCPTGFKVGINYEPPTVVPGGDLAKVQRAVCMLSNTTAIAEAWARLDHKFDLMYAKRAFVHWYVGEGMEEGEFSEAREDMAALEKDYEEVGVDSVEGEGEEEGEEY
Chain of Tubulin (Sus scrofa) (P02554 whole entry, looked up): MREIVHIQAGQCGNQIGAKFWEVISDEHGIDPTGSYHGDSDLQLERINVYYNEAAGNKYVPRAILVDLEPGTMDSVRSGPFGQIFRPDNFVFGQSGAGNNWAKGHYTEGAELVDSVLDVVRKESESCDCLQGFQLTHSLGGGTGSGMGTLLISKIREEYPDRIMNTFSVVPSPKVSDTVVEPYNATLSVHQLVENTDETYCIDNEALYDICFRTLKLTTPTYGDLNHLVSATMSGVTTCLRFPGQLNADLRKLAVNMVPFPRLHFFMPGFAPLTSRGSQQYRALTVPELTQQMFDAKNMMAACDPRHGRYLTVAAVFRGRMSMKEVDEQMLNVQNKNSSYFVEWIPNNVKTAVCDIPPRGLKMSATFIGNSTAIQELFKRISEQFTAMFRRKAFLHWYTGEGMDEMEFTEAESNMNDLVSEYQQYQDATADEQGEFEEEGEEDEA
The test system of assay [4] is HeLa. Kind of assay: Induction of cell cycle arrest in human HeLa cells assessed as cell arrest at accumulation at G2/M phase at 5 uM after 24 hrs by flow cytometric analysis (reference value: 25.49%). It counts as functional. A general note: In flow cytometry, cells or beads pass a laser one at a time.
For assay [5], the system named is HeLa. Kind of assay: Induction of cell cycle arrest in human HeLa cells assessed as cell arrest at accumulation at G2/M phase at 2 uM after 24 hrs by flow cytometric analysis (reference value: 25.49%). The format is functional.
For assay [6], the system named is HeLa. In words: Disruption of microtubule organization in human HeLa cells at 5 uM after 24 hrs by DAPI-FITC staining based confocal microscopic analysis. It counts as functional, cell-based.
Assay [7] relates to HeLa. Kind of assay: Induction of apoptosis in human HeLa cells assessed as activation of caspase-3 activity at 2 uM after 24 hrs by ELISA. The format is functional. (In general: An ELISA detects its analyte on a solid surface through an enzyme-linked reagent.)
The subject of assay [8] is HeLa. In words: Induction of apoptosis in human HeLa cells assessed as activation of caspase-3 activity at 4 uM after 24 hrs by ELISA. It counts as functional.
Assay [9] deals with HeLa. Kind of assay: Induction of apoptosis in human HeLa cells assessed as induction of cyclin B1 levels at 5 uM after 24 hrs by Western blot analysis. It counts as functional, cell-based.
The test system of assay [10] is HeLa. Kind of assay: Induction of apoptosis in human HeLa cells assessed as activation of cyclin B1 mRNA levels at 5 uM after 24 hrs by semi-quantitative RT-PCR. The format is functional, cell-based.
The next assay deals with Tubulin (Sus scrofa, UniProt P02554+P02550). In words: Inhibition of porcine brain tubulin polymerization by fluorescence based assay.

Turning to `CCc1nn2c(-c3ccccc3)c(-c3cc(OC)c(OC)c(OC)c3)nc2s1`, the IC50 in assay [1] was 13.4 µM; in the assay on MCF7 it was 11.5 µM; in the assay on HeLa [2], 10.8 µM; in assay [3], 14.6 µM.

Regarding `COc1cc(-c2nc3sc(C4CC4)nn3c2-c2ccc(OC(F)(F)F)cc2)cc(OC)c1OC`, the IC50 is 18.2 µM in assay [1], 16.8 µM in the assay with MCF7, 11.3 µM in the assay on HeLa [2] and 13 µM in [3].

At Tubulin (Sus scrofa), `COC(=O)Nc1nc2cc(C(=O)c3cccs3)ccc2[nH]1` gave an inhibition of 79.2%.

On to `CCc1nn2c(-c3cc(OC)c(OC)c(OC)c3)c(-c3cc(OC)c(OC)c(OC)c3)nc2s1`, for which the IC50 in [1] was determined as 19.6 µM; in the assay with MCF7, 20.4 µM; with HeLa [2] it was 17.5 µM; in [3] it was 13.4 µM.

Take `COc1cc(-c2nc3sc(C4CC4)nn3c2-c2ccc(C(F)(F)F)cc2)cc(OC)c1OC`: the IC50 amounted to 23.4 µM in [1], 18.4 µM in the assay on MCF7, 43.5 µM with HeLa [2] and 15.2 µM in assay [3].

As to `COc1cc(-c2nc3sc(C4CC4)nn3c2-c2cc(OC)c(OC)c(OC)c2)cc(OC)c1OC`, the IC50 worked out at 39.6 µM in [1], 36.5 µM in the assay with MCF7, 13.7 µM in the assay with HeLa [2] and 52.1 µM in [3].

For the compound `COc1ccc(-c2c(-c3cc(OC)c(OC)c(OC)c3)nc3sc(C4CC4)nn23)cc1OC`, the IC50 in assay [1] was 19.6 µM; in the assay on MCF7 it was 12.9 µM; with HeLa [2], 15.6 µM; in [3] it was 16.6 µM.

With `CCc1nn2c(-c3ccc(OC)cc3)c(-c3cc(OC)c(OC)c(OC)c3)nc2s1`, the IC50 stood at 30.5 µM in [1], 25.4 µM in the assay with MCF7, 21.6 µM in the assay with HeLa [2] and 25.4 µM in [3].

On to `CCc1nn2c(-c3ccc(C(F)(F)F)cc3)c(-c3cc(OC)c(OC)c(OC)c3)nc2s1`, for which the IC50 was 14.8 µM in assay [1], 11.8 µM with MCF7, 10.5 µM in the assay on HeLa [2] and 18.3 µM in assay [3].

For `COc1cc(F)ccc1-c1c(-c2cc(OC)c(OC)c(OC)c2)nc2sc(C3CC3)nn12`, the IC50 was found to be 40.9 µM in [1], 34.8 µM in the assay on MCF7, 25.9 µM in the assay with HeLa [2] and 22.4 µM in assay [3].

Regarding `CCc1nn2c(-c3ccc(Cl)cc3)c(-c3cc(OC)c(OC)c(OC)c3)nc2s1`, the IC50 in assay [1] amounted to 15.4 µM; with MCF7, 12.2 µM; with HeLa [2] it was 13.7 µM; in [3] it was 19.1 µM.

As to `CCc1ccc(-c2c(-c3cc(OC)c(OC)c(OC)c3)nc3sc(C4CC4)nn23)cc1`, the IC50 in [1] was found to be 39.8 µM; in the assay on MCF7, 29.3 µM; in the assay on HeLa [2], 36.2 µM; in [3], 13.5 µM.

As to `COc1cc(-c2nc3sc(C4CC4)nn3c2-c2ccc(N(C)C)cc2)cc(OC)c1OC`, the IC50 in assay [1] came out at 2.5 µM; in the assay with MCF7, 3.4 µM; in the assay with HeLa [2], 2.9 µM; in [3], 3.45 µM; at Tubulin, 3.8 µM. Moreover, the inhibition against Tubulin (Sus scrofa) was 60.9%. Moreover, the Activity is listed as 72.5% in the assay on HeLa [4] and 57.66% in the assay with HeLa [5]. Moreover, the outcome in the assay on HeLa [6], in the assay on HeLa [9] and with HeLa [10] was Active. The “fold change (FC)” value in the assay with HeLa [7] and in the assay on HeLa [8] was 2.5 throughout.

Take `CCc1nn2c(-c3ccc(OC(F)(F)F)cc3)c(-c3cc(OC)c(OC)c(OC)c3)nc2s1`: the 50% inhibitory concentration (IC50) came out at 16.4 µM in assay [1], 14.8 µM with MCF7, 13.4 µM in the assay with HeLa [2] and 23.5 µM in assay [3].

In the case of `COc1cc(-c2nc3sc(C4CC4)nn3c2-c2ccc(C)cc2)cc(OC)c1OC`, the IC50 worked out at 29.8 µM in assay [1], 26.1 µM in the assay on MCF7, 20.5 µM with HeLa [2] and 18.5 µM in [3].

With `CCc1nn2c(-c3ccc(N(C)C)cc3)c(-c3cc(OC)c(OC)c(OC)c3)nc2s1`, the IC50 in assay [1] was 2.5 µM; with MCF7 it was 1.9 µM; with HeLa [2] it was 2.2 µM; in assay [3] it was 2.75 µM; at Tubulin, 3.1 µM. The compound further came in with an inhibition against Tubulin (Sus scrofa) of 66.8%. For the same compound, the Activity in the assay with HeLa [4] was 67.53%; in the assay with HeLa [5], 55.3%. Moreover, the outcome in the assay with HeLa [6], in the assay on HeLa [9] and with HeLa [10] was Active. Moreover, the “fold change (FC)” value with HeLa [7] and in the assay with HeLa [8] was 2.5 throughout.

As for `CCc1nn2c(-c3ccc(F)c(Cl)c3)c(-c3cc(OC)c(OC)c(OC)c3)nc2s1`, the IC50 in assay [1] came to 17.3 µM; in the assay with MCF7 it was 14.5 µM; with HeLa [2], 13.9 µM; in [3], 11.4 µM.

In the case of `CCc1nn2c(-c3ccc(OC)c(OC)c3)c(-c3cc(OC)c(OC)c(OC)c3)nc2s1`, the IC50 worked out at 14.6 µM in assay [1], 11.4 µM in the assay on MCF7, 14.6 µM in the assay with HeLa [2] and 13.3 µM in assay [3].

In the case of `COc1cc(-c2nc3sc(C4CC4)nn3c2-c2ccc(F)c(Cl)c2)cc(OC)c1OC`, the half-inhibitory concentration (IC50) in [1] is 20.7 µM; in the assay with MCF7, 18.7 µM; in the assay with HeLa [2] it was 15.5 µM; in [3] it was 13.7 µM.

Turning to `COc1cc(-c2nc3sc(C4CC4)nn3c2-c2ccccc2)cc(OC)c1OC`, the IC50 in assay [1] was 31.5 µM; with MCF7 it was 42.3 µM; in the assay with HeLa [2], 35.4 µM; in assay [3], 25.6 µM.

With `COc1cc(-c2nc3sc(C4CC4)nn3c2-c2ccc(F)cc2)cc(OC)c1OC`, the IC50 in assay [1] was determined as 27.6 µM; in the assay with MCF7, 19.6 µM; with HeLa [2], 15.6 µM; in assay [3], 15.1 µM.

As for `CCc1nn2c(-c3cc(F)cc(F)c3)c(-c3cc(OC)c(OC)c(OC)c3)nc2s1`, the IC50 was 30.6 µM in [1], 36.4 µM in the assay on MCF7, 26.4 µM in the assay on HeLa [2] and 21.6 µM in assay [3].

`CCc1nn2c(-c3ccc(F)cc3)c(-c3cc(OC)c(OC)c(OC)c3)nc2s1`: the IC50 in assay [1] amounted to 10.5 µM; with MCF7 it was 9.8 µM; in the assay on HeLa [2], 11.3 µM; in [3], 16.6 µM.

Turning to `CCc1nn2c(-c3ccc4c(c3)OCO4)c(-c3cc(OC)c(OC)c(OC)c3)nc2s1`, the IC50 amounted to 13.1 µM in assay [1], 11.5 µM with MCF7, 8.7 µM in the assay on HeLa [2] and 18.8 µM in assay [3].

Turning to `COc1cc(-c2nc3sc(C4CC4)nn3c2-c2ccc3ccccc3c2)cc(OC)c1OC`, the IC50 in assay [1] was 21.6 µM; in the assay with MCF7 it was 15.3 µM; with HeLa [2], 19.4 µM; in assay [3], 45.2 µM.

`COc1ccc(/C=C\c2cc(OC)c(OC)c(OC)c2)cc1O` [COMBRETASTATIN A4]: the IC50 turned out to be 0.087 µM in assay [1], 0.134 µM with MCF7, 0.15 µM in the assay on HeLa [2] and 0.12 µM in assay [3]. Also, the Activity in the assay with HeLa [4] was determined as 83.95%. For the same compound, the result with HeLa [6], with HeLa [9] and in the assay on HeLa [10] was Active. The “fold change (FC)” value in the assay with HeLa [7] and with HeLa [8] was 2.5 each time.

With `COc1ccc(-c2c(-c3cc(OC)c(OC)c(OC)c3)nc3sc(C4CC4)nn23)cc1`, the IC50 in assay [1] came out at 16.9 µM; in the assay on MCF7 it was 11.6 µM; in the assay with HeLa [2] it was 14.6 µM; in [3], 10.5 µM.

For `CCc1nn2c(-c3ccc(C)cc3)c(-c3cc(OC)c(OC)c(OC)c3)nc2s1`, the IC50 turned out to be 20.4 µM in assay [1], 16.7 µM in the assay with MCF7, 14.8 µM in the assay on HeLa [2] and 21.7 µM in assay [3].

In the case of `CCc1ccc(-c2c(-c3cc(OC)c(OC)c(OC)c3)nc3sc(CC)nn23)cc1`, the IC50 in [1] amounted to 14.6 µM; in the assay on MCF7 it was 12.5 µM; with HeLa [2] it was 12.4 µM; in [3], 24.4 µM.

With `COc1cc(-c2nc3sc(C4CC4)nn3c2-c2ccc(Cl)cc2)cc(OC)c1OC`, the concentration for half-maximal inhibition (IC50) in assay [1] was determined as 17.4 µM; with MCF7, 22.9 µM; with HeLa [2], 19.2 µM; in [3], 11.6 µM.

As to `CCc1nn2c(-c3ccc(F)cc3OC)c(-c3cc(OC)c(OC)c(OC)c3)nc2s1`, the IC50 turned out to be 29.1 µM in assay [1], 30.2 µM in the assay on MCF7, 28.1 µM in the assay on HeLa [2] and 35.2 µM in assay [3].

Take `COc1cc(-c2nc3sc(C4CC4)nn3c2-c2ccc3c(c2)OCO3)cc(OC)c1OC`: the IC50 in assay [1] turned out to be 19.4 µM; in the assay with MCF7, 25.6 µM; in the assay with HeLa [2], 16.8 µM; in assay [3], 12.8 µM.

For `COc1cc(-c2nc3sc(C4CC4)nn3c2-c2cc(F)cc(F)c2)cc(OC)c1OC`, the IC50 is 29.6 µM in [1], 23.4 µM with MCF7, 17.3 µM in the assay on HeLa [2] and 16.9 µM in [3].
